Calls of active or inactive are those of the source. No cut-off for these calls is given here.
target: Nucleotide-binding oligomerization domain-containing protein 2 (Homo sapiens) (UniProt Q9HC29); experiment: Activation of NOD2 expressed in HEK293 cells assessed as increase in IL8 secretion measured at 0.01 to 0.7 uM after 18 hrs by ELISA; format: cell-based
Sequence (Q9HC29 whole entry, the tested form may be a part): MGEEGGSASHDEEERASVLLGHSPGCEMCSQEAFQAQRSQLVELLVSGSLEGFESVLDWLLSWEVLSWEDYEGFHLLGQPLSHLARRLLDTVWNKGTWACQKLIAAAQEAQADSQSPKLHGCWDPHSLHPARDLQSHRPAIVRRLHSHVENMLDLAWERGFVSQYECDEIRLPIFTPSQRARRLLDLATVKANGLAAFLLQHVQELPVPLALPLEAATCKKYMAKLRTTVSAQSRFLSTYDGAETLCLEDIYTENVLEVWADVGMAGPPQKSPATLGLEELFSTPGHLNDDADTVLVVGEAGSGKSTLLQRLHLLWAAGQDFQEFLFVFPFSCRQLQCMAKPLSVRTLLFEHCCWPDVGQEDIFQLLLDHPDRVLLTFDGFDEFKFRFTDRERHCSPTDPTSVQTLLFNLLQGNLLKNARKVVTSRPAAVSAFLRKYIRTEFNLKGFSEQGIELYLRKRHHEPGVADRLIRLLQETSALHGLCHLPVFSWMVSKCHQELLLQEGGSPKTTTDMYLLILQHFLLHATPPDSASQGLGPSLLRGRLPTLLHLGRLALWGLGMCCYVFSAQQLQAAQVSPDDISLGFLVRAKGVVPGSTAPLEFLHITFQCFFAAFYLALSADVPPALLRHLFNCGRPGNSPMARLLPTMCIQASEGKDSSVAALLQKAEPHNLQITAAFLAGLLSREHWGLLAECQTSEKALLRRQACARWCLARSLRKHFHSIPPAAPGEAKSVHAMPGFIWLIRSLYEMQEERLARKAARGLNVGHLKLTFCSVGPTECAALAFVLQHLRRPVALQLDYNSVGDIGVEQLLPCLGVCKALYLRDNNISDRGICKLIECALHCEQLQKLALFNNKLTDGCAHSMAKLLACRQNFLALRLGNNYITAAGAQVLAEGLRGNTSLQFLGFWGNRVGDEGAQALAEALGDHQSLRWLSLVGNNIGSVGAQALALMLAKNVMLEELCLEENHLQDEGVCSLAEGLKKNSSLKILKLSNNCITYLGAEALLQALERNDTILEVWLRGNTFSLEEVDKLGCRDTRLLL

| SMILES | Activity |
| --- | --- |
| CC(=O)N[C@H]1[C@@H](OP(=O)(O)OP(=O)(O)OC[C@H]2O[C@@H](n3ccc(=O)[nH]c3=O)[C@H](O)[C@@H]2O)O[C@H](CO)[C@@H](O)[C@@H]1O[C@H](C)C(=O)N[C@@H](C)C(=O)N[C@H](CCC(=O)N[C@@H](CCC[C@@H](N)C(=O)O)C(=O)O)C(=O)O | Active |
| CC(=O)N[C@H]1C(O)O[C@H](CO)[C@@H](O)[C@@H]1O[C@H](C)C(=O)N[C@@H](C)C(=O)N[C@H](CCC(=O)N[C@@H](CCCCN)C(=O)O)C(=O)O (some centres not stated) | Active |
| CC(=O)N[C@H]1[C@@H](OP(=O)(O)OP(=O)(O)OC[C@H]2O[C@@H](n3ccc(=O)[nH]c3=O)[C@H](O)[C@@H]2O)O[C@H](CO)[C@@H](O)[C@@H]1O[C@H](C)C(=O)N[C@@H](C)C(=O)N[C@H](CCC(=O)N[C@@H](CCCCN)C(=O)O)C(=O)O | Active |
| CC(=O)N[C@H]1C(O)O[C@H](CO)[C@@H](O)[C@@H]1O[C@H](C)C(=O)N[C@@H](C)C(=O)N[C@H](CCC(=O)N[C@@H](CCCCNC(=O)CCCC[C@@H]1SC[C@@H]2NC(=O)N[C@@H]21)C(=O)O)C(=O)O (some centres not stated) | Active |
| CC(=O)N[C@H]1C(O)O[C@H](CO)[C@@H](O)[C@@H]1O[C@H](C)C(=O)N[C@@H](C)C(=O)N[C@H](CCC(=O)O)C(N)=O (some centres not stated) | Active |
| CC(=O)N[C@H]1[C@@H](OP(=O)(O)OP(=O)(O)OC[C@H]2O[C@@H](n3ccc(=O)[nH]c3=O)[C@H](O)[C@@H]2O)O[C@H](CO)[C@@H](O)[C@@H]1O[C@H](C)C(=O)N[C@@H](C)C(=O)N[C@H](CCC(=O)N[C@@H](CCC[C@@H](NC(=O)CCCC[C@@H]1SC[C@@H]2NC(=O)N[C@@H]21)C(=O)O)C(=O)O)C(=O)O | Active |
| CC(=O)N[C@H]1C(O)O[C@H](COC(=O)CCCCCNC(=O)CCCCCNC(=O)CCCCCNC(=O)CCCC[C@@H]2SC[C@@H]3NC(=O)N[C@@H]32)[C@@H](O)[C@@H]1O[C@H](C)C(=O)N[C@@H](C)C(=O)N[C@H](CCC(=O)O)C(N)=O (some centres not stated) | Active |

Continued, values first:

| Activity | SMILES |
| --- | --- |
| inactive | CC(=O)N[C@H]1C(O)O[C@H](CO)[C@@H](O)[C@@H]1O[C@H](C)C(=O)N[C@@H](C)C(=O)N[C@H](CCC(=O)N[C@@H](CCC[C@@H](NC(=O)CCCC[C@@H]1SC[C@@H]2NC(=O)N[C@@H]21)C(=O)O)C(=O)O)C(=O)O (some centres not stated) |
| inactive | CC(=O)N[C@H]1C(O)O[C@H](CO)[C@@H](O)[C@@H]1O[C@H](C)C(=O)N[C@@H](C)C(=O)N[C@H](CCC(=O)N[C@@H](CCC[C@@H](N)C(=O)O)C(=O)O)C(=O)O (some centres not stated) |
| Active | CC(=O)N[C@H]1C(O)O[C@H](CO)[C@@H](O)[C@@H]1O[C@H](C)C(=O)N[C@@H](C)C(=O)N[C@H](CCC(=O)N[C@@H](CCCCNC(=O)CCCCCNC(=O)CCCCCNC(=O)CCCC[C@@H]1SC[C@@H]2NC(=O)N[C@@H]21)C(=O)O)C(=O)O (some centres not stated) |
| Active | CC(=O)N[C@H]1[C@@H](OP(=O)(O)OP(=O)(O)OC[C@H]2O[C@@H](n3ccc(=O)[nH]c3=O)[C@H](O)[C@@H]2O)O[C@H](CO)[C@@H](O)[C@@H]1O[C@H](C)C(=O)N[C@@H](C)C(=O)N[C@H](CCC(=O)N[C@@H](CCCCNC(=O)CCCC[C@@H]1SC[C@@H]2NC(=O)N[C@@H]21)C(=O)O)C(=O)O |
| Active | CC(=O)N[C@H]1[C@@H](OP(=O)(O)OP(=O)(O)OC[C@H]2O[C@@H](n3ccc(=O)[nH]c3=O)[C@H](O)[C@@H]2O)O[C@H](CO)[C@@H](O)[C@@H]1O[C@H](C)C(=O)N[C@@H](C)C(=O)N[C@H](CCC(=O)N[C@@H](CCCCNC(=O)CCCCCNC(=O)CCCCCNC(=O)CCCC[C@@H]1SC[C@@H]2NC(=O)N[C@@H]21)C(=O)O)C(=O)O |
